Assay results taken from ChEMBL document CHEMBL5729205, “Rho-associated protein kinase inhibitor, pharmaceutical composition comprising same, and preparation method and use thereof” (2022).

Target: Rho-associated protein kinase 2 (Homo sapiens, UniProt O75116)
Experiment: Biological Assay: The kinase IC50 was determined by a commercialized CISBIO kinase detection kit, HTRF KinEASE-STK S2 kit (62ST2PEC). ROCK2 (01-119) employed in the reaction was purchased from Carna Biosciences.Before the assay, the following working solutions as needed were formulated with corresponding reagents according to the instruction of the kinase detection kit: 1×kinase buffer, 5×STK-52 substrate working solution (1.5 μM) and 5×ATP working solution (1.5 μM), 5×ROCK2 kinase working solution, 4×Streptavidin-XL665 working solution, and 4×STK-Ab-Cryptate 2 detection solution. Then the assay was performed according to the following procedure.A solution of a compound at a concentration of 10000 nM was prepared with the 1×kinase buffer containing 2.5% DMSO. Gradient dilution of the solution of the compound was performed with the kinase buffer containing DMSO, so as to obtain solutions of a test compound at 9 different concentrations. In addition to wells of test compounds, a positive well (containing all the reagents except the compound) and a negative well (containing all the reagents except the test compound and kinase) were set. Except for the control wells (positive and negative wells), a solution of a test compound (4 μL) was added to each of the reaction wells, and a solution of 2.5% DMSO was added to the control wells. Then the substrate (2 μM, i.e., 2 μL. 5×STK-S2 substrate working solution) was added to each of the reaction wells. The 5×ROCK2 kinase working solution (2 μL, containing 1.4 ng ROCK2 kinase) was added to each of the reaction wells except for the negative well, the volume of which was made up with the 1×kinase buffer (2 μL). The 5×ATP working solution (2 μL) was added to each of the reaction wells, and the mixtures were incubated at room temperature for 2 hours. After the kinase reaction was complete, the 4×Streptavidin-XL665 working solution was added to each of the reaction wells, the solutions were mixed, followed by immediate addition of the 4×STK-Ab-Cryptate 2 detection solution (5 μL), and the mixtures were incubated at room temperature for 1 hour. The fluorescence signal was read on ENVISION (Perkinelmer) (excitation wavelength: 320 nm, and emission wavelength: 665 nm and 615 nm). The inhibitory rate in each well was calculated based on the fluorescence intensity value: ER (Emission Ratio)=(fluorescence intensity at 665 nm/fluorescence intensity at 615 nm); inhibitory rate=(ERpositive−ERtest compound)/(ERpositive−ERnegative)*100%. Curves were plotted and fitted to obtain the median inhibitory concentration (IC50) of each teat compound with the PRISM 5.0 software.

Chain of Rho-associated protein kinase 2 (O75116 whole entry): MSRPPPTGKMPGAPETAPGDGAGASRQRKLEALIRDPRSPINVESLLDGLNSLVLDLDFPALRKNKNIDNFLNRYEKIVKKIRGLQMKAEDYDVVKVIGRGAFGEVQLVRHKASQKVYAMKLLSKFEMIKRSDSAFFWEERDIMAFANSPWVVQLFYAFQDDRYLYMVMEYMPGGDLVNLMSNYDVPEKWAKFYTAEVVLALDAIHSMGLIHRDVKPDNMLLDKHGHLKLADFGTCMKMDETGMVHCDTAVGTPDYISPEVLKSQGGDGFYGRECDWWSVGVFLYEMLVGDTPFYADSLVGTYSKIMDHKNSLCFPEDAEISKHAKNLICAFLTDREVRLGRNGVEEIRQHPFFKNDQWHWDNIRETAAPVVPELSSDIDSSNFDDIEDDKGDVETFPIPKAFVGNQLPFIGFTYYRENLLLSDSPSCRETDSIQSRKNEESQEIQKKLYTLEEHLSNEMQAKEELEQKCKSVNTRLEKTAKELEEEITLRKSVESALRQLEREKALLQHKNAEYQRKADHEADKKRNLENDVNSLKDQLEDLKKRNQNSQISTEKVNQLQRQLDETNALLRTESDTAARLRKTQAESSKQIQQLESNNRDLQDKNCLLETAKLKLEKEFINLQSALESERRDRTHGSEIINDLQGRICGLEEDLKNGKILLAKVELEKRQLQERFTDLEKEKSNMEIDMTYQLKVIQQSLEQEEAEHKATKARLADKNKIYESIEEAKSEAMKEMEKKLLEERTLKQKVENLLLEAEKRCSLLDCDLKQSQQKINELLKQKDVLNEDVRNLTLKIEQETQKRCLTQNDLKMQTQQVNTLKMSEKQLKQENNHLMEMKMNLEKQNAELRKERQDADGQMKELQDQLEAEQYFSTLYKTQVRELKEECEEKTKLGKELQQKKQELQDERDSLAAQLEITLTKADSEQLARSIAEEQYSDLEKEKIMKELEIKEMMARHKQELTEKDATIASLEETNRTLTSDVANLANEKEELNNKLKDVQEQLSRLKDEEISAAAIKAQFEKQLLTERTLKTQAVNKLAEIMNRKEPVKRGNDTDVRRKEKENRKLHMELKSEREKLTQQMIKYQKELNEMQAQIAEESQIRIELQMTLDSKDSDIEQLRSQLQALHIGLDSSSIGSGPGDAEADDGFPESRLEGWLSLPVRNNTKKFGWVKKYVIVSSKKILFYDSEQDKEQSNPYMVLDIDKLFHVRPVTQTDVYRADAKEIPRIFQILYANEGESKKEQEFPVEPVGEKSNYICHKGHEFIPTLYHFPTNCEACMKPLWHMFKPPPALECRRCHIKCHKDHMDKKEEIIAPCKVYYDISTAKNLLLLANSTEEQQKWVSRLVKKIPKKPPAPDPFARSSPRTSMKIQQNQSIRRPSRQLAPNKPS

IC50 | SMILES
0.331 µM | CC1(C(=O)N2CCc3ccc(-c4ncc(F)c(Nc5ccc(-c6cn[nH]c6)cc5)n4)cc3C2)CC(F)(F)C1
0.114 µM | O=C(Oc1ccccc1)N1Cc2ccc(-c3nccc(Nc4ccc(-c5cn[nH]c5)cc4)n3)cc2C1
0.322 µM | C#CC1CN(C(=O)c2cc3ccc(-c4nccc(Nc5ccc(-c6cn[nH]c6)cc5)n4)cc3n2C)C1
0.13 µM | O=C(C1CC(F)(F)C1)N1CCc2cc(-c3nccc(Nc4ccc(-c5cn[nH]c5)cc4)n3)ccc2C1
0.01 µM | O=C(C1CC(F)(F)C1)N1Cc2ccc(-c3nc4c(c(Nc5ccc(-c6cn[nH]c6)cc5)n3)CNC4)cc2C1
0.162 µM | O=C(C1CCOCC1)N1Cc2ccc(-c3ncc(F)c(Nc4ccc(-c5cn[nH]c5)cc4)n3)cc2C1
0.06 µM | O=C(C1CC(F)(F)C1)N1Cc2ccc(-c3nc(Nc4ccc(-c5cn[nH]c5)cc4)c4sccc4n3)cc2C1
0.022 µM | CC1(C(=O)N2Cc3ccc(-c4nccc(Nc5ccc(-c6cn[nH]c6)cc5)n4)cc3C2)CC(F)(F)C1
0.019 µM | O=C(OC1CC(F)(F)C1)N1Cc2ccc(-c3nccc(Nc4ccc5[nH]ncc5c4)n3)cc2C1
0.018 µM | O=C(C1CC(F)(F)C1)N1Cc2ccc(-c3nc(Nc4ccc(-c5cn[nH]c5)cc4)c4occc4n3)cc2C1
0.019 µM | Cc1cnc(-c2ccc3cc(C(=O)N4CC(F)(F)C4)n(C)c3c2)nc1Nc1ccc(-c2cn[nH]c2)cc1
0.04 µM | CN1Cc2nc(-c3ccc4c(c3)CN(C(=O)C3CC(F)(F)C3)C4)nc(Nc3ccc(-c4cn[nH]c4)cc3)c2C1
0.412 µM | O=C(c1cc2ccc(-c3nccc(Nc4ccc5[nH]ncc5c4)n3)cc2[nH]1)N1CC2CNCC2C1 (centres undefined)
0.069 µM | O=C(OC1CC(F)(F)C1)N1Cc2ccc(-c3ncc(F)c(Nc4ccc(-c5cn[nH]c5)cc4)n3)cc2C1
0.023 µM | COc1cnc(-c2ccc3cc(C(=O)N4CC(F)(F)C4)[nH]c3c2)nc1Nc1ccc(-c2cn[nH]c2)cc1
0.021 µM | COc1cc(-c2cn[nH]c2)ccc1Nc1ccnc(-c2ccc3c(c2)CN(C(=O)C2CC(F)(F)C2)C3)n1
0.24 µM | N=C(N)N1CCC2(CC1)CCN(C(=O)c1cc3ccc(-c4nccc(Nc5ccc6[nH]ncc6c5)n4)cc3[nH]1)CC2
0.129 µM | O=C(C1CC(F)(F)C1)N1Cc2ccc(-c3nc(Nc4ccc5[nH]ncc5c4)c4sccc4n3)cc2C1
0.034 µM | Cn1c(C(=O)N2CC(F)(F)C2)cc2ccc(-c3nccc(Nc4ccc(-c5cn[nH]c5)cc4O)n3)cc21
0.014 µM | O=C(NC1CCN(c2ccncc2Cl)CC1)c1cc2ccc(-c3nccc(Nc4ccc5[nH]ncc5c4)n3)cc2[nH]1
0.09 µM | C[C@@H](NC(=O)c1cc2ccc(-c3nccc(Nc4ccc5[nH]ncc5c4)n3)cc2[nH]1)c1ccc(C(F)(F)F)nc1
0.014 µM | CN1Cc2nc(-c3ccc4cc(C(=O)N5CC(F)(F)C5)n(C)c4c3)nc(Nc3ccc(-c4cn[nH]c4)cc3)c2C1

IC50 | SMILES
0.477 µM | O=C(C1CCC(F)(F)CC1)N1CCc2ccc(-c3ncc(F)c(Nc4ccc(-c5cn[nH]c5)cc4)n3)cc2C1
0.027 µM | COCn1c(C(=O)N2CC(F)(F)C2)cc2ccc(-c3nc4c(c(Nc5ccc(-c6cn[nH]c6)cc5)n3)CNC4)cc21
0.118 µM | CCn1c(C(=O)N2CC(F)(F)C2)cc2ccc(-c3nccc(Nc4ccc(-c5cn[nH]c5)cc4)n3)cc21
0.093 µM | Cc1[nH]ncc1-c1ccc(Nc2nc(-c3ccc4c(c3)CN(C(=O)C3CC(F)(F)C3)C4)ncc2F)cc1
0.076 µM | Cn1ccc2nc(-c3ccc4cc(C(=O)N5CC(F)(F)C5)n(C)c4c3)nc(Nc3ccc(-c4cn[nH]c4)cc3)c21
0.01 µM | Cn1c(C(=O)N2CC(F)(F)C2)cc2ccc(-c3nc4c(c(Nc5ccc(-c6cn[nH]c6)cc5)n3)COC4)cc21
0.214 µM | O=C(N1CCc2ccc(-c3nccc(Nc4ccc(-c5cn[nH]c5)cc4)n3)cc2C1)N1CC(F)(F)C1
0.35 µM | CC(C)NC(=O)c1cc2ccc(-c3nc(Cc4ccccc4)cc(Nc4ccc5[nH]ncc5c4)n3)cc2[nH]1
0.039 µM | O=C(C1CC(F)(F)C1)N1Cc2ccc(-c3cncc(Nc4ccc(-c5cn[nH]c5)cc4)n3)cc2C1
0.255 µM | COCn1c(C(=O)N2CC(F)(F)C2)cc2ccc(-c3ncc(F)c(Nc4ccc(-c5cn[nH]c5)cc4)n3)cc21
0.355 µM | COCCn1c(C(=O)N2CC(F)(F)C2)cc2ccc(-c3nccc(Nc4ccc(-c5cn[nH]c5)cc4)n3)cc21
0.08 µM | Cn1c(C(=O)N2CC(F)(F)C2)cc2ccc(-c3nc(Nc4ccc(-c5cn[nH]c5)cc4)c4occc4n3)cc21
0.027 µM | Cn1c(C(=O)N2CC(F)(F)C2)cc2ccc(-c3nccc(Nc4ccc(-c5cn[nH]c5)nc4)n3)cc21
0.039 µM | Cn1c(C(=O)N2CC(F)(F)C2)cc2ccc(-c3nccc(Nc4ccc(-c5cn[nH]c5)cn4)n3)cc21
0.24 µM | O=C(c1cc2ccc(-c3nccc(Nc4ccc(-c5cn[nH]c5)cc4)n3)cc2[nH]1)N1CCCC1
0.393 µM | O=C(c1cccnc1)N1Cc2ccc(-c3nccc(Nc4ccc(-c5cn[nH]c5)cc4)n3)cc2C1
0.313 µM | O=C(c1ccncc1)N1Cc2ccc(-c3nccc(Nc4ccc(-c5cn[nH]c5)cc4)n3)cc2C1
0.004 µM | Cn1c(C(=O)N2CC(F)(F)C2)cc2ccc(-c3nc4c(c(Nc5ccc(-c6cn[nH]c6)cc5)n3)CNC4)cc21
0.159 µM | O=C(c1cc2ccc(-c3nccc(Nc4ccc(-c5cn[nH]c5)cc4)n3)cc2n1CC(F)F)N1CC(F)(F)C1
0.214 µM | O=C(C1CC(F)(F)C1)N1CCc2ccc(-c3nccc(Nc4ccc(-c5cn[nH]c5)cc4)n3)cc2C1
0.427 µM | COCn1c(C(=O)N2CC(F)(F)C2)cc2ccc(-c3ncnc(Nc4ccc(-c5cn[nH]c5)cc4)n3)cc21
0.029 µM | O=C(C1CC(F)(F)C1)N1Cc2ccc(-c3nc(Nc4ccc(-c5cn[nH]c5)cc4)c4[nH]ccc4n3)cc2C1
